Literature values in patent publication US20040254092A1 (priority 2003, published 2004).

Assays:
[1] = system: Poliomyelitis virus type I (PVI); settings: ozone density 0.13 mg/L, time 30 seconds
[2] = system: Mycoplasma, Chlamydia, and other pathogens
[3] = system: SA-H and human-wheel virus type 2
[4] = system: Type-B hepatitis surface antigen (HbsAg)

SMILES: O=[O+][O-] [Ozone, ozone]
- Sterilizing efficiency [1]: 100%
- Sterilizing efficiency [2]: 99.85%
- Sterilizing efficiency (Coronaviridae): 100%
- Sterilizing efficiency (HIV): 100%
- Sterilizing efficiency (Type-A flu virus): 99%
- Sterilizing efficiency (Coliphage ms2): 98%
- Sterilizing efficiency [3]: 99.60%
- Sterilizing efficiency [4]: 99.99%
